Values quoted from earlier work, collected in US6534473B1, “Process for the manufacture of tablet detergent compositions” (Unilever Patent Holdings BV, priority 1998, dated 2003).
Read-outs that look alike come from different tables or passages of the source.

[1] = at 20° C., other common materials, by contrast

Compound | solubility in water (at 20° C.) | Water Solubility (grams of solid to form a saturated solution in 100 grams of water at 20° C., highly water-soluble materials) [g/100 g] | Water Solubility [1] [g/100 g]
NC(N)=O [Urea] | exceeding 100 gms per 100 ml water | >100 | –
O=P(O)(O)OP(=O)(O)OP(=O)(O)O [Sodium tripolyphosphate anhydrous] | – | – | 15
O=BO[O-].[Na+] [Sodium perborate anhydrous] | – | – | 3.7
